# Test results published in US11667678B2, “Peptides for the treatment of COVID-19” (priority 2019, dated 2023).
# Peptide text beside a SMILES is read from it.
# Columns and labels:
# control mice = conditions: mouse, in vivo
# [1] = target: ACE2:SARS-CoV-2 spike S1 binding (UniProt P0DTC2+Q9BYF1)
# [2] = tested on: SARS-CoV-2 spike S1-intoxicated C57/BL6 mice; conditions: mouse, in vivo
# [3] = tested on: human A549 lung cells stimulated with recombinant SARS-CoV-2 spike S1; conditions: 'See herein and Paidi et al.'; cited from earlier work
# [4] = tested on: human A549 lung cells stimulated with recombinant SARS-CoV-2 spike S1; assay type: cell-based
# [5] = tested on: human A549 lung cells stimulated with poly IC; assay type: cell-based
# [6] = tested on: human A549 lung cells stimulated with HIV-1 Tat; assay type: cell-based
# [7] = tested on: human A549 lung cells stimulated with bacterial flagellin; assay type: cell-based
# [8] = tested on: SARS-CoV-2 spike S1-intoxicated C57/BL6 mice; conditions: mouse, in vivo; remark: listed apart in the source
Compound,"drug-related side effect (hair loss, appetite loss, weight loss, untoward infection and irritation) (control mice)",SARS-CoV-2 spike S1 binding to immobilized ACE2 [1],arrhythmias (ECG heart functions) [2],fever (body temperature) [2],infiltration of neutrophils into the lungs [2],level of proinflammatory molecules in lungs and serum [2],locomotor activities [2],serum level of C-reactive protein (CRP) [2],SARS-CoV-2 spike S1-induced expression of proinflammatory cytokines [3],SARS-CoV-2 spike S1-mediated induction of IL-6 and IL-1β (mRNA) [4],expression of IL-6 and IL-1β induced by poly IC [5],expression of IL-6 and IL-1β induced by HIV-1 Tat [6],expression of IL-6 and IL-1β induced by flagellin [7],body temperature (fever) [8],level of IL-6 mRNA and protein as well as IL-1β mRNA in lungs [8],level of serum IL-6 [8],lung neutrophil infiltration [8]
"CC(C)[C@H](NC(=O)CNC(=O)[C@H](CC(N)=O)NC(=O)[C@@H](N)[C@@H](C)O)C(=O)NCC(=O)N[C@@H](Cc1ccc(O)cc1)C(=O)O [wtAIDS, TNGVGY] (H-TNGVGY-OH)",did not notice any drug-related side effect,–,–,–,–,–,–,–,–,–,–,–,–,–,–,–,–
EDLFYQ (SPIDAR peptide) [wtSPIDAR],–,Inhibition,reduced arrhythmias,reduced fever,attenuated,decreased,improved locomotor activities,normalized,markedly suppresses,–,–,–,–,–,–,–,–
TGGVGD (mAIDS peptide),–,no such inhibition,–,–,–,–,–,–,–,had no effect,had no effect,had no effect,had no effect,no such inhibitory effect,no such inhibitory effect,no such inhibitory effect,no such inhibitory effect
